Experimental data reported in PubChem BioAssay AID2060486 (Molecular Pharmacology Branch, DTP, NCI, 2025).

Test system: IGROV1 complex spheroids (HUVEC, MSC), viability % test/control
Assay: Anticancer human tumor IGROV1 cell line growth inhibition [GQUAD];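 also: spheroids exposed to compounds for 7 days before readout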
Details: for IC50: curve of first compound; for viability, T/C: stronger effect = lower value
From the text: DNA G-quadruplex Stabilizer Agents in Combinations in Complex Spheroids
A high-throughput screen of multi-cell type tumor spheroids was designed to identify active combinations of DNA G-quadruplex stabilizer agents and targeted small molecules. Complex spheroids include a stromal component modeled by human endothelial cells (HUVEC) and fibroblasts modeled by human mesenchymal stem cells (MSCs). The concentration ranges selected for each drug and investigational agent were based upon clinically achievable concentrations if the clinical Cmax of the agent was known.
Compounds. The drugs and investigational agents: pidnarulex (CX-5461; NSC782164), APTO-253 (NSC789042), BRACO-19 (NSC847499), peposertib (NSC802822), ceralasertib (NSC780249), elimusertib (NSC800525), camonsertib (NSC841442), AZD-1390 (NSC803789), olaparib (NSC753686), talazoparib (NSC767125), ART-558 (NSC835418), sotorasib (NSC818433), MRTX-1133 (NSC836407), SN-38 (NSC673596), topotecan (NSC609699), etoposide (NSC141540), doxorubicin (NSC123127), gemcitabine (NSC613327), 5-fluorouracil (NSC19893), paclitaxel (NSC125973), vemurafenib (NSC761431), panobinostat (NSC761190), R-306465 (JNJ-16241199; NSC773264), adavosertib (NSC754352), TP-3654 (NSC805149), carboplatin (NSC241240), KSQ-4279 (NSC840948), and staurosporine (NSC755774) were obtained from the National Cancer Institute (NCI) Developmental Therapeutics Program Chemical Repository (34). The FDA-approved anticancer drug set is available from the NCI Developmental Therapeutics Program. […] The stock solutions were prepared in dimethyl sulfoxide (DMSO, Sigma-Aldrich, St. Louis, MO, cat. D2650) at 800-fold the tested concentration and stored at -70 degrees C prior to their use. All drugs and investigational agents were tested over a range starting from a high concentration at or near the clinical Cmax and decreasing in half-log increments. If the clinical Cmax for an agent had not been determined, the highest concentration tested was 10 microM.
2.3 Cell Culture. All cells were maintained in an incubator at 37 degrees C and 5% CO2 with 95% humidity. The PDC lines were cultured according to standard operating procedures established by the NCI PDMR. All PDCs were thawed and cultured in Matrigel-coated flasks prepared with a working solution of 1X Ham's F-12 nutrient mix, without supplementation (Invitrogen, cat. 11765054), 100 U/mL penicillin-streptomycin (Invitrogen, cat. 15140122), and 2.5% Matrigel (Corning Inc., cat. 354248) for the first three passages. The 857933-349-R-J2-PDC line was cultured in 6C/Colon 1B media, which includes advanced DMEM/F-12 (Thermo Fisher Scientific, cat. 12634028), 10 mM HEPES (Thermo Fisher Scientific, cat. 15630080), 1X GlutaMAX supplement (Thermo Fisher Scientific, cat. 35050061), 0.1 mg/mL primocin (InvivoGen, cat. ant-pm-2), 10% defined fetal bovine serum, heat inactivated (HyClone Laboratories Inc., cat. SH30070.03HI), 50% L-WRN conditioned media (ATCC, cat. CRL-3276), 1.25 mM N-Acetyl-L-cysteine (Sigma-Aldrich, cat. A9165), 10 mM nicotinamide (Sigma-Aldrich, cat. N0636), 1X B-27 supplement (Thermo Fisher Scientific, cat. 17504044), 1X N-2 supplement (Thermo Fisher Scientific, cat. 17502048), 10 microM Y-27632 dihydrochloride (Tocris Bioscience, cat. 1254), and 50 ng/mL human EGF recombinant protein (Thermo Fisher Scientific, cat. PHG0311). The 485176-168-R4-J1-PDC line was cultured in Panc media, which includes all 6C/Colon 1B media components plus 100 ng/mL human FGF-10 (Thermo Fisher Scientific, cat. 100-26), 500 nM SB-431542 (Selleckchem, cat. S1067), and gastrin (Tocris, cat. 3006).
[…]

[1] = second compound 0.0316 µM, first compound 0.0316 µM
[2] = second compound 0.0316 µM, first compound 0.1 µM
[3] = second compound 0.0316 µM, first compound 0.316 µM
[4] = second compound 0.0316 µM, first compound 1 µM
[5] = second compound 0.0316 µM, first compound 3.16 µM
[6] = second compound 0.0316 µM, first compound 10 µM
[7] = second compound 0.1 µM, first compound 0.0316 µM
[8] = second compound 0.1 µM, first compound 0.1 µM
[9] = second compound 0.1 µM, first compound 0.316 µM
[10] = second compound 0.1 µM, first compound 1 µM
[11] = second compound 0.1 µM, first compound 3.16 µM
[12] = second compound 0.1 µM, first compound 10 µM
[13] = second compound 0.316 µM, first compound 0.0316 µM
[14] = second compound 0.316 µM, first compound 0.1 µM
[15] = second compound 0.316 µM, first compound 0.316 µM
[16] = second compound 0.316 µM, first compound 1 µM
[17] = second compound 0.316 µM, first compound 3.16 µM
[18] = second compound 0.316 µM, first compound 10 µM
[19] = second compound 1 µM, first compound 0.0316 µM
[20] = second compound 1 µM, first compound 0.1 µM
[21] = second compound 1 µM, first compound 0.316 µM
[22] = second compound 1 µM, first compound 1 µM
[23] = second compound 1 µM, first compound 3.16 µM
[24] = second compound 1 µM, first compound 10 µM
[25] = second compound 3.16 µM, first compound 0.0316 µM
[26] = second compound 3.16 µM, first compound 0.1 µM
[27] = second compound 3.16 µM, first compound 0.316 µM
[28] = second compound 3.16 µM, first compound 1 µM
[29] = second compound 3.16 µM, first compound 3.16 µM
[30] = second compound 3.16 µM, first compound 10 µM
[31] = second compound 10 µM, first compound 0.0316 µM
[32] = second compound 10 µM, first compound 0.1 µM
[33] = second compound 10 µM, first compound 0.316 µM
[34] = second compound 10 µM, first compound 1 µM
[35] = second compound 10 µM, first compound 3.16 µM
[36] = second compound 10 µM, first compound 10 µM

Nc1ccn(C2OC(CO)C(O)C2(F)F)c(=O)n1 (stereo unspecified) + Cc1[nH]c2ccc(F)cc2c1-c1nc2c3cccnc3c3ncccc3c2[nH]1
IC50 (second compound 0.0316 µM): < 31.6 nM
IC50 (second compound 0.1 µM): < 31.6 nM
IC50 (second compound 0.316 µM): < 31.6 nM
IC50 (second compound 1 µM): < 31.6 nM
IC50 (second compound 3.16 µM): < 31.6 nM
IC50 (second compound 10 µM): < 31.6 nM
viability, T/C [1]: 10.5%
viability, T/C [2]: 6.29%
viability, T/C [3]: 5.85%
viability, T/C [4]: 6.52%
viability, T/C [5]: 6.69%
viability, T/C [6]: 5.57%
viability, T/C [7]: 18%
viability, T/C [8]: 6.64%
viability, T/C [9]: 5.87%
viability, T/C [10]: 5.31%
viability, T/C [11]: 5.55%
viability, T/C [12]: 6.59%
viability, T/C [13]: 11.5%
viability, T/C [14]: 6.38%
viability, T/C [15]: 6.31%
viability, T/C [16]: 6.72%
viability, T/C [17]: 6.12%
viability, T/C [18]: 5.22%
viability, T/C [19]: 4.26%
viability, T/C [20]: 5%
viability, T/C [21]: 3.88%
viability, T/C [22]: 3.77%
viability, T/C [23]: 3.84%
viability, T/C [24]: 3.25%
viability, T/C [25]: 5.06%
viability, T/C [26]: 4.43%
viability, T/C [27]: 3.62%
viability, T/C [28]: 4.5%
viability, T/C [29]: 4.02%
viability, T/C [30]: 2.81%
viability, T/C [31]: 3.58%
viability, T/C [32]: 4.69%
viability, T/C [33]: 4.1%
viability, T/C [34]: 4.26%
viability, T/C [35]: 3.44%
viability, T/C [36]: 2.86%

O=C(NO)c1cnc(N2CCN(S(=O)(=O)c3ccc4ccccc4c3)CC2)nc1 + Cc1[nH]c2ccc(F)cc2c1-c1nc2c3cccnc3c3ncccc3c2[nH]1
IC50 (second compound 0.0316 µM): 98.9 nM
IC50 (second compound 0.1 µM): 96.2 nM
IC50 (second compound 0.316 µM): 81.9 nM
IC50 (second compound 1 µM): < 31.6 nM
IC50 (second compound 3.16 µM): < 31.6 nM
IC50 (second compound 10 µM): < 31.6 nM
viability, T/C [1]: 87.3%
viability, T/C [2]: 49.5%
viability, T/C [3]: 12.1%
viability, T/C [4]: 0.35%
viability, T/C [5]: 0.04%
viability, T/C [6]: 0.07%
viability, T/C [7]: 91.5%
viability, T/C [8]: 47.7%
viability, T/C [9]: 20.1%
viability, T/C [10]: 0.3%
viability, T/C [11]: 0.05%
viability, T/C [12]: 0.06%
viability, T/C [13]: 91.3%
viability, T/C [14]: 40.6%
viability, T/C [15]: 17.2%
viability, T/C [16]: 0.3%
viability, T/C [17]: 0.04%
viability, T/C [18]: 0.05%
viability, T/C [19]: 2.48%
viability, T/C [20]: 1.93%
viability, T/C [21]: 2.47%
viability, T/C [22]: 0.07%
viability, T/C [23]: 0.03%
viability, T/C [24]: 0.05%
viability, T/C [25]: 1.55%
viability, T/C [26]: 1.3%
viability, T/C [27]: 0.5%
viability, T/C [28]: 0.04%
viability, T/C [29]: 0.05%
viability, T/C [30]: 0.07%
viability, T/C [31]: 1.75%
viability, T/C [32]: 1.33%
viability, T/C [33]: 0.92%
viability, T/C [34]: 0.07%
viability, T/C [35]: 0.11%
viability, T/C [36]: 0.1%

O=C(c1cc(Cc2n[nH]c(=O)c3ccccc23)ccc1F)N1CCN(C(=O)C2CC2)CC1 + Cc1[nH]c2ccc(F)cc2c1-c1nc2c3cccnc3c3ncccc3c2[nH]1
IC50 (second compound 0.0316 µM): 5340 nM
IC50 (second compound 0.1 µM): 3120 nM
IC50 (second compound 0.316 µM): 5530 nM
IC50 (second compound 1 µM): < 31.6 nM
IC50 (second compound 3.16 µM): < 31.6 nM
IC50 (second compound 10 µM): < 31.6 nM
viability, T/C [1]: 97.1%
viability, T/C [2]: 82.3%
viability, T/C [3]: 94.9%
viability, T/C [4]: 66.5%
viability, T/C [5]: 72.8%
viability, T/C [6]: 31%
viability, T/C [7]: 89.1%
viability, T/C [8]: 83.2%
viability, T/C [9]: 69.4%
viability, T/C [10]: 57.3%
viability, T/C [11]: 62.3%
viability, T/C [12]: 23.5%
viability, T/C [13]: 72.9%
viability, T/C [14]: 82.4%
viability, T/C [15]: 74%
viability, T/C [16]: 82.3%
viability, T/C [17]: 69.8%
viability, T/C [18]: 28%
viability, T/C [19]: 4.09%
viability, T/C [20]: 3.9%
viability, T/C [21]: 4.15%
viability, T/C [22]: 4.33%
viability, T/C [23]: 6.04%
viability, T/C [24]: 4.53%
viability, T/C [25]: 3.99%
viability, T/C [26]: 3.97%
viability, T/C [27]: 3.46%
viability, T/C [28]: 3.87%
viability, T/C [29]: 4.83%
viability, T/C [30]: 3.88%
viability, T/C [31]: 4.17%
viability, T/C [32]: 3.02%
viability, T/C [33]: 3.67%
viability, T/C [34]: 4.06%
viability, T/C [35]: 5.08%
viability, T/C [36]: 4.55%
